Results published in US10689622B2, “Culture medium for proliferating stem cell, which contains sulfated compound” (AJINOMOTO CO., INC., priority 2012, dated 2020).

Legend:
[1] = biological target: T1, bFGF (Homo sapiens, UniProt P09038); assay: Evaluation of bFGF stabilization in Essential 8 medium (ELISA); assay type: biochemical; conditions: 37° C. for 7 days
T1 construct: purchased Lonza (via TAKARA BIO INC.) Ser. No. 00/190,632
In short: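 Test compound in PBS diluted 10-fold into serum-free medium (Essential 8 or ReproFF2), held sealed at 37° C for 7 days; remaining bFGF quantified by ELISA against a standard curve. Controls: PBS without compound diluted into each medium, held 7 days at 37° C or 4° C.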

[2] = Measurement of content level of sulfur in test compound (ICP); assay type: physicochemical
In short: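 Sulfur content was measured by ICP emission spectrometry on samples containing 0.01 wt % test compound. Values came from a calibration curve of sulfur standards at 0, 1, 10, 30 and 50 ppm.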

[3] = biological target: T1, bFGF; assay: Evaluation of bFGF stabilization in Lonza serum-free medium (ELISA); assay type: biochemical
In short: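 Compound in PBS diluted 10-fold into serum-free medium and held sealed at 37 °C for 7 days (some sets 3 days). Remaining bFGF quantified by human bFGF sandwich ELISA against a standard curve. Controls were compound-free PBS-medium kept at 37 °C or 4 °C for the same period.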

[4] = compound used in the Examples, stated in the description

T1 sequence (P09038 143-288): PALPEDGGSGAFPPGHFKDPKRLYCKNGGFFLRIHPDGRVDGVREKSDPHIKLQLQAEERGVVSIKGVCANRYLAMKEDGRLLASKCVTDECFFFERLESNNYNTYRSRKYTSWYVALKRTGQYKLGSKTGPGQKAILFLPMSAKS

concentration showing a suppressive effect on a decrease in the bFGF concentration of the medium [1]: not less than 2.5 μg/ml
sulfur content Found (inorganic analysis) ([2]; ICPS-8100, evaluation samples containing 0.01 wt % test compound): 17 wt %
sulfate group / sulfo group content level [2, 4]: 48.8 wt %
sulfur content (content level of sulfur) [2, 4]: 19.5 wt %
concentration showing a suppressive effect on a decrease in the bFGF concentration in the medium ([3]; Lonza serum-free medium, 37° C. for 3 days): not less than 250 ng/ml
effectiveness ELISA ([3]; effectiveness in ELISA evaluation of mesenchymal stem cells (medium), 4° C. control ratio): + (+ 30%<)
SMILES: O=S(=O)([O-])OC[C@H]1O[C@@](COS(=O)(=O)[O-])(O[C@H]2O[C@H](COS(=O)(=O)[O-])[C@@H](OS(=O)(=O)[O-])[C@H](OS(=O)(=O)[O-])[C@H]2OS(=O)(=O)[O-])[C@@H](OS(=O)(=O)[O-])[C@@H]1OS(=O)(=O)[O-].[K+].[K+].[K+].[K+].[K+].[K+].[K+].[K+] [sucrose 8SO3K]
bFGF concentration relative to that of 4° C. control (ELISA) ([1]; test compound 250 pg/ml): x (bFGF concentration was less than 10% relative to that of 4 °C control)
bFGF concentration relative to that of 4° C. control (ELISA) ([1]; test compound 25 ng/ml): x (bFGF concentration was less than 10% relative to that of 4 °C control)
bFGF concentration relative to that of 4° C. control (ELISA) ([1]; test compound 250 ng/ml): x (bFGF concentration was less than 10% relative to that of 4 °C control)
bFGF concentration relative to that of 4° C. control (ELISA) ([1]; test compound 25 μg/ml): +++ (bFGF concentration was not less than 70% relative to that of 4 °C control)
bFGF concentration relative to that of 4° C. control (ELISA) ([1]; test compound 250 μg/ml): +++ (bFGF concentration was not less than 70% relative to that of 4 °C control)
bFGF concentration relative to that of 4° C. control (ELISA) ([3]; Lonza serum-free medium, 37° C. for 3 days, test compound 25 ng/ml): x (bFGF concentration was less than 10% relative to that of 4 °C control)
bFGF concentration relative to that of 4° C. control (ELISA) ([3]; Lonza serum-free medium, 37° C. for 3 days, test compound 250 ng/ml): − (bFGF concentration was not less than 10% and less than 30% relative to that of 4 °C control)
bFGF concentration relative to that of 4° C. control (ELISA) ([3]; Lonza serum-free medium, 37° C. for 3 days, test compound 25 μg/ml): +++ (bFGF concentration was not less than 70% relative to that of 4 °C control)
bFGF concentration relative to that of 4° C. control (ELISA) ([3]; Lonza serum-free medium, 37° C. for 3 days, test compound 250 μg/ml): +++ (bFGF concentration was not less than 70% relative to that of 4 °C control)
bFGF concentration relative to that of 4° C. control (ELISA) ([3]; Lonza serum-free medium, 37° C. for 7 days, test compound 25 ng/ml): x (bFGF concentration was less than 10% relative to that of 4 °C control)
bFGF concentration relative to that of 4° C. control (ELISA) ([3]; Lonza serum-free medium, 37° C. for 7 days, test compound 250 ng/ml): x (bFGF concentration was less than 10% relative to that of 4 °C control)
bFGF concentration relative to that of 4° C. control (ELISA) ([3]; Lonza serum-free medium, 37° C. for 7 days, test compound 25 μg/ml): − (bFGF concentration was not less than 10% and less than 30% relative to that of 4 °C control)
bFGF concentration relative to that of 4° C. control (ELISA) ([3]; Lonza serum-free medium, 37° C. for 7 days, test compound 250 μg/ml): + (bFGF concentration was not less than 30% and less than 50% relative to that of 4 °C control)
